Assay results published in patent US12054482B2, “TLR8 agonist” (CHIA TAI TIANQING PHARMACEUTICAL GROUP CO., LTD., priority 2018, dated 2024).
Structures can show the parent of a compound that is named as a salt. Where two headings read alike, the source gives them in different places.

Tested on: human peripheral blood mononuclear cells (hPBMCs)
Test: Cytokine induction in human peripheral blood mononuclear cells
Type: cell-based
Settings: PBMC, hPBMC, 24 hours
Description: Experimental Example 2: Experimental Procedure for Peripheral Blood Mononuclear Cell
TLR8 is a receptor for the innate immune system to sense exogenous pathogens, and can recognize exogenous viral single-stranded RNA and cause the release of a series of cytokines such as TNF-α, IL-12, IFN-γ to elicit an antiviral immune response; TLR7 is another receptor for the innate immune system to sense exogenous pathogens and, when activated, produces primarily such antiviral cytokines as IFN-α. In this experiment, a potential compound of TLR8 agonist was used to stimulate human peripheral blood mononuclear cells (hPBMCs), and the levels of TNF-α, IL-12p40, IFN-γ and IFN-α above were measured to reflect the activation of the compound on TLR8 receptor and its selectivity for TLR8/TLR7.
The experimental procedures are as follows: • 1. Fresh blood of healthy volunteers was collected, and anticoagulated with an EDTA-K2 anticoagulation tube (catalog No. BD-8516542); • 2. hPBMC cells in the middle cloud-like layer were separated after Ficoll density gradient centrifugation, and washed twice with RPMI1640 (source: Gibco, catalog No. 224400-089) containing 10% serum, and the culture medium was resuspended to 10 mL. After the cells were counted with Vi-cell cell counter, the concentration of cell suspension was adjusted to 2×10^6/mL; • 3. The compound was dissolved in DMSO to 100 mM, and diluted to 50 mM and 2 mM with DMSO, which were served as initial concentrations. Then the solutions were each diluted sequentially in a 3-fold gradient (sample at a previous concentration (5 μL)+DMSO (10 μL)) to obtain 8 gradients. The resulting solutions were respectively subjected to 500-fold dilution with the culture medium to prepare the working solutions of the compound; • 4. 100 μL of hPBMC suspension and 100 μL of compound working solution were added to each well of a U-bottom 96-well plate, with the final concentrations being 2000 nM, 666.7 nM, 222.2 nM, 74.1 nM, 24.7 nM, 8.2 nM, 2.7 nM and 0.9 nM respectively, and incubated for 24 hours. Then the supernatants were collected and cryopreserved at −20° C. for the detection of TNF-α, IFN-γ and IL-12p40 cytokines. The other group of compound samples, with the final concentrations being 50 μM, 16.7 μM, 5.6 μM, 1.9 μM, 0.6 μM, 0.2 μM, 0.1 μM and 0.02 μM respectively, were incubated for 24 hours. […] IL-12p40, TNF-α and IFN-γ in the supernatant were detected by flow cytometric bead array (CBA); IFN-α in the cell supernatant was detected by enzyme-linked immuno sorbent assay (ELISA). • 6. Data analysis: compound activity: EC50 values (half maximal effect concentration) were analyzed using a GraphPad Prism software and the dose-response curves of the compound were fitted to calculate EC50 values for the compound.

EC50 (CBA, TLR8 pathway cytokine, read-out: IFN-γ EC50): 29 nM | EC50 (CBA, TLR8 pathway cytokine, read-out: IL-12p40 EC50): 26 nM | EC50 (CBA, TLR8 pathway cytokine, read-out: TNF-α EC50): 105 nM | EC50 (ELISA, TLR7 pathway cytokine, read-out: IFN-α EC50): 2800 nM
SMILES: CCCC[C@](C)(Cc1ncn[nH]1)Nc1nc(N)nc2cnccc12 [Hydrochloride of Example 1]
